Laboratory results taken from PMC5601180, “Uptake and metabolism of sulphated steroids by the blood–brain barrier in the adult male rat” (Journal of Neurochemistry, 2017).

Tests used:
efflux transporters = assay: Brain perfusion in situ with efflux transporter inhibitors co-perfused with 3H-steroid sulphate; type: in vivo, rat; settings: GF120918 3 μM or MK571 50 μM co-perfused, alone or in combination; 0.5 min perfusion
Description: Figure 3 Effect of the efflux inhibitors GF120918 (3 μM) and MK571 (50 μM), alone or in combination, on the brain uptake of either ^3H‐dehydroepiandrosterone sulphate (DHEAS) or ^3H‐pregnenolone sulphate (PregS) after 0.5 min perfusion. […] All values mean ± SEM, n = 3. The effect of 0.5 mM of the corresponding unlabelled steroid sulphate (SS) in addition to the inhibitors is also shown. […] The inhibitors GF120918 and MK571 were dissolved in dimethylsulphoxide to a maximum final concentration of 0.8% (v/v) in the perfusate.

[1] = TLC analysis of 3H-steroid metabolites in brain fractions after perfusion; type: in vivo, rat; settings: after 0.5 min perfusion with the 3H-steroid sulphate
Text: For the analysis of ^3H‐steroid metabolites, samples were spotted onto TLC plates for chromatography in the following solvent systems: A (for sulphated steroids), ethyl acetate:ethanol:ammonia (5 : 5 : 1, v/v); B (for free steroids) cyclohexane:n‐butyl acetate (1 : 2, v/v); C (for acetylated steroids), isooctane:ethyl acetate (13 : 7, v/v). Non‐radioactive steroid standards could be visualised by exposure to iodine vapour whereas the ^3H‐steroids were detected by placing the TLC plates in contact with imaging film for subsequent visualisation in a phosphorimager. Additional analysis of the steroid sulphates employed elution from the TLC plate in ammoniated ethanol then drying down and redissolving in sodium acetate buffer, 0.5 M, pH 5.0 for desulphation by incubation with Helix sulphatase (1 mg/mL, 40°C overnight followed by 55°C for 3 h). The resulting free steroids were adsorbed onto a 60 mg Oasis HLB® cartridge and eluted in 5 mL ethyl acetate. This eluate was dried down and analysed by TLC as above for free steroids. Further identification of ^3H‐steroid metabolites was obtained by acetylating them alongside both ^3H‐labelled and non‐radioactive standards. The TLC eluates or standards were dried down and redissolved in 200 μL pyridine. An equal volume of acetic anhydride was then added followed by incubation at 37°C for 2 h. […]

[2] = Rat brain perfusion in situ: uptake of 3H-steroid sulphates and markers (Vd, Kin, PS); settings: for K in, unidirectional transfer coefficient / PS, permeability–surface area product: 0.5 min perfusion; for K in, unidirectional transfer coefficient: corrected for vascular space (sucrose Vd), mean ± SEM, n ≥ 3; for PS, permeability–surface area product: from K in by Renkin–Crone equation with diazepam K in as flow
Description: Each animal also received intraperitoneal heparin, 10 000 U/kg. Body temperature was maintained at 37°C with a heating pad.
For analysis of free and sulphated steroids and for steryl‐sulfate sulfohydrolase (EC 3.1.6.2; trivial name steroid sulphatase) assays, both hemispheres were perfused, via right and left common carotid arteries, and 0.8 mM MgCl2 replaced 0.8 mM MgSO4 in the solution. The perfusate was delivered at a constant rate of 6 mL/min for hemi‐perfusions and 12 mL/min for bilateral perfusions, maintaining a net perfusion pressure of 40–70 mm Hg.
The remaining tissue of the right hemisphere was homogenised and samples (~50 mg) taken in triplicate (“remainder samples”). Triplicate samples of the perfusate were also taken. Samples were weighed into vials and dissolved (48 h at 20°C) in 0.5 mL Solvable before addition of 4.5 mL Optiphase 2 scintillation fluid for counting of radioactivity.
Brain uptake was calculated as a volume of distribution V d, where V d (μL/g) = (dpm/g tissue)/(dpm/μL perfusate). The unidirectional transfer coefficients, (K in, μL/g/min), for DHEAS and for PregS were calculated from the V d at 0.5 min, corrected with the V d for the vascular space marker sucrose.

[3] = Bilateral brain perfusion, capillary depletion and separation of free and sulphated 3H-steroids; type: in vivo, rat
Description: Brains were bilaterally perfused for 0.5 min with ^3H‐labelled DHEAS 1.25 or 6.0 μCi (0.046 or 0.221 MBq)/mL (13.5 or 64.9 nM) or PregS 1.0 μCi (0.037 MBq)/mL (47.6 nM). The hindbrain was removed and each hemisphere homogenised in 2 vols (w/v) buffer containing (in mM) NaCl 141, KCl 4, NaH2PO4 1, CaCl2 2.8, MgCl2 1, HEPES 10, D‐glucose 10, pH 7.4. A sample of the homogenate of the whole right hemisphere was removed for scintillation counting, and the remainder retained as the whole brain homogenate.
The left hemisphere homogenate was separated into capillary‐enriched and capillary‐depleted fractions by the method of Triguero et al. (1990). For this, an equal volume of 26% dextran (w/w) solution was added to the homogenate and a sample taken for liquid scintillation counting before centrifugation at 5300 g for 15 min at 4°C. The upper layer was taken as the capillary‐depleted fraction and the pellet as the capillary‐enriched fraction.
Before extraction, fractions were sonicated in 5 vols ice‐cold, 5 mM potassium phosphate buffer, pH 7. Small portions (150 μL) were removed for measurement of protein content (Bradford 1976) and total radioactivity. For the latter, homogenate was solubilised (15 min, 20°C) in 10 vols Soluene then bleached (2 h, 50°C) with 0.3 vol hydrogen peroxide before counting in Ecoscint H containing Triton X‐100 (6% v/v), glacial acetic acid (0.6% v/v) and butylated hydroxytoluene (2% w/v). The remainder of each homogenate was extracted as described in detail elsewhere (Ebner et al. 2006; Sujkovic et al. 2009), to give free steroid and steroid sulphate fractions. First, homogenates were extracted into 20 vols ethanol containing acetic acid 3% (v/v). After centrifugation (28 000 g, 30 min, 25°C) to remove denatured protein, the extracts were delipidated by partitioning three times against 10 vols isooctane. Extracts were dried down under vacuum and redissolved in ethanol, which was then diluted to 20% v/v in 5 mM potassium phosphate buffer, pH 7.0 at a total volume of 20 ml. Separation of free and sulphated steroids was achieved by passage through a 60 mg Oasis MAX® cartridge. After washing the cartridge with 5 mL ethanol at 20% v/v in ammonium acetate (20 mM, pH 7), free steroids were eluted in 4 mL ethyl acetate. Passage of 20 mL ethanol at 60% v/v in formate/pyridine buffer (20 mM, pH 3) eluted any steroid glucuronides present. Finally, steroid sulphates were eluted in 30 mL 60% v/v ethanol containing ammonium carbonate 1% (w/v). To measure the radioactivity of each fraction, portions were dried down and then redissolved in Ecoscint H for counting. The remainder was dried down, redissolved in ethanol 96% v/v and stored at −20°C for subsequent analysis by TLC.

[4] = after 0.5 min bilateral perfusion, mean ± SEM, n = 5

Compound: COc1cc2c(cc1OC)CN(CCc1ccc(NC(=O)c3cccc4c(=O)c5cccc(OC)c5[nH]c34)cc1)CC2.Cl [GF120918, 9,10‐dihydro‐5‐methoxy‐9‐oxo‐N‐[4‐[2‐(1,2,3,4‐tetrahydro‐6,7‐dimethoxy‐2‐isoquinolinyl)ethyl]phenyl]‐4‐acridine‐carboxamide hydrochloride]
- effect on brain uptake of 3H-DHEAS (efflux transporters): significant decrease in uptake
- effect on brain uptake of 3H-PregS (efflux transporters): significant decrease in uptake

Compound: CN(C)C(=O)CCSC(SCCC(=O)O)c1cccc(/C=C/c2ccc3ccc(Cl)cc3n2)c1 (stereo not drawn) [MK571, 3‐[[[3‐[(1E)‐2‐(7‐Chloro‐2‐quinolinyl)ethenyl]phenyl][[3‐(dimethylamino)‐3‐oxopropyl]thio]methyl]thio]propanoic acid]
- effect on brain uptake of 3H-DHEAS (efflux transporters): significant decrease in uptake
- effect on brain uptake of 3H-PregS (efflux transporters): significant decrease in uptake

Compound: CC(=O)[C@H]1CCC2C3CC=C4C[C@@H](OS(=O)(=O)O)CC[C@]4(C)C3CC[C@@]21C (stereo partly drawn) [PregS, pregnenolone sulphate]
- metabolism in brain fractions [1]: no further metabolism of PregS beyond the liberation of free steroid pregnenolone
- K in, unidirectional transfer coefficient ([2]; Cerebellum): 256.8 ± 43.7 µL/g/min
- PS, permeability–surface area product ([2]; Cerebellum): 392.6 ± 103.4 µL/g/min
- K in, unidirectional transfer coefficient ([2]; Hippocampus): 292.1 ± 24.2 µL/g/min
- PS, permeability–surface area product ([2]; Hippocampus): 303.5 ± 26.0 µL/g/min
- K in, unidirectional transfer coefficient ([2]; Hypothalamus): 277.6 ± 48.8 µL/g/min
- PS, permeability–surface area product ([2]; Hypothalamus): 295.8 ± 54.8 µL/g/min
- K in, unidirectional transfer coefficient ([2]; Medulla): 196.4 ± 39.5 µL/g/min
- PS, permeability–surface area product ([2]; Medulla): 328.6 ± 117.5 µL/g/min
- position of log PS in plot against cLog Poct relative to the line for passively permeating compounds ([2]; PS from K in as slope of Vd against time 0.25 to 0.5 min, implies net efflux): below the 95% confidence limits of the line of best fit for passively permeating compounds
- K in, unidirectional transfer coefficient ([2]; Parietal cortex): 351.5 ± 9.8 µL/g/min
- PS, permeability–surface area product ([2]; Parietal cortex): 377.2 ± 11.3 µL/g/min
- K in, unidirectional transfer coefficient ([2]; Remainder of brain tissue): 311.2 ± 20.8 µL/g/min
- PS, permeability–surface area product ([2]; Remainder of brain tissue): 326.5 ± 22.9 µL/g/min
- K in, unidirectional transfer coefficient ([2]; Striatum): 328.6 ± 41.9 µL/g/min
- PS, permeability–surface area product ([2]; Striatum): 351.5 ± 48.1 µL/g/min
- K in, unidirectional transfer coefficient ([2]; Sup. colliculus): 404.9 ± 30.4 µL/g/min
- PS, permeability–surface area product ([2]; Sup. colliculus): 419.6 ± 32.5 µL/g/min
- V d, corrected for sucrose space (vascular volume), control ([2]; rat, in vivo): 165.63 ± 10.40 µL/g
- time at which brain uptake (Vd) reached a maximum ([2]; rat, in vivo): ≤ 1 min
- radioactivity in capillary fraction [3, 4]: 1856 ± 245 dpm/mg protein
- radioactivity in parenchyma fraction [3, 4]: 1988 ± 328 dpm/mg protein
- recovery of total homogenate radioactivity into capillary fraction [3, 4]: 8.8 ± 1.8%
- recovery of total homogenate radioactivity into parenchyma fraction [3, 4]: 68.0 ± 10.0%
- percentage of 3H-label as free steroid, parenchyma versus capillary ([3]; after 0.5 min perfusion, Fig. 4, p < 0.02): significantly higher percentage of the free steroid in the parenchyma than in the brain capillaries
- desulphation on uptake into brain ([3]; within 0.5 min of uptake, brain perfusion in situ): > 50%
